Patent US10315990B2, “Isothiocyanate compounds and isothiocyanate XPO1 protein inhibitor drugs thereof” (DRIVINGFORCE THERAPEUTICS Co., Ltd., priority 2015, dated 2019)
Read-outs that look alike come from different tables or passages of the source.

What was measured:
XPO1 protein = molecular target: T1, XPO1 protein (Homo sapiens, UniProt O14980); assay: Inhibitory activity for XPO1 protein (NES-GFP nuclear export, laser confocal microscope); assay type: cell-based; details: for Activity (μM): inhibitory activity for XPO1 protein (full inhibitory concentration): NES-GFP nuclear export, cells treated for 2 hours
T1 construct: Sixteen hours later, NES-GFP plasmid was transfected with liposome; endogenous in cells
T1 sequence (O14980 whole entry, species assumed): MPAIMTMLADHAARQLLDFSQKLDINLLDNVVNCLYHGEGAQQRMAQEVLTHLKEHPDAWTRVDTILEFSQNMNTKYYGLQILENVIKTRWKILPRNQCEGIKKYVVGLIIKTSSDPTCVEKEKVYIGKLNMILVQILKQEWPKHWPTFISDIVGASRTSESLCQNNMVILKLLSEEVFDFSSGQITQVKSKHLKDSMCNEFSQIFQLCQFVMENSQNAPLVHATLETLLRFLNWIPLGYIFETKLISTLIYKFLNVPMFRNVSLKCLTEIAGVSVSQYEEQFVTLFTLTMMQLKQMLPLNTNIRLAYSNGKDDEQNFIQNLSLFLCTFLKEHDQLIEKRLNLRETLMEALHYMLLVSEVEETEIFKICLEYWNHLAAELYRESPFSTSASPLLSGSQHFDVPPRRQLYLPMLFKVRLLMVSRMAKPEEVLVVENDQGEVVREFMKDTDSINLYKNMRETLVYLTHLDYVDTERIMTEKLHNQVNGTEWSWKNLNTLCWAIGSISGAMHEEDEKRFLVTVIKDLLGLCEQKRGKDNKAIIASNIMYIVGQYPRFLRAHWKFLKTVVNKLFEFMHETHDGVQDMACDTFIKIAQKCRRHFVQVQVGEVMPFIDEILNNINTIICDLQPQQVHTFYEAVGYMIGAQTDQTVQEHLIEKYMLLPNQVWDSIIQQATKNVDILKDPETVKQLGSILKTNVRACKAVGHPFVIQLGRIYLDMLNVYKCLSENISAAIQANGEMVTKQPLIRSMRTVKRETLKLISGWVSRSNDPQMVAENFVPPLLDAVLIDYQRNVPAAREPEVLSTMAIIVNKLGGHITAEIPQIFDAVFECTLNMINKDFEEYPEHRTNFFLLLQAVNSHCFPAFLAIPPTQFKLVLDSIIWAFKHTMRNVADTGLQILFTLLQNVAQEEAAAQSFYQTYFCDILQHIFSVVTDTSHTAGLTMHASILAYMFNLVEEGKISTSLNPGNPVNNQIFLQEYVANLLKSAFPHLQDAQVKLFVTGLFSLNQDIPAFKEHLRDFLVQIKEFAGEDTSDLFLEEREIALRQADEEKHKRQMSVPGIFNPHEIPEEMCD
Excerpt: NES (nuclear export signal) is a nuclear export signal peptide recognized by XPO1 protein. XPO1 recognizes NES sequence peptide segment of biomacromolecule and exports the biomacromolecule out of nucleus. NES-GFP protein is obtained by co-expressing green fluorescence protein GFP and NES sequence peptide segment by using a eukaryotic expression plasmid. Inhibitory activity of the representative compound for XPO1 protein can be assessed by detecting influence of the compound on NES-GFP cell localization.
The cells were digested with trypsin, counted, and inoculated on 96-well plate in an amount of 1.5×10^4 cells per well. Sixteen hours later, NES-GFP plasmid was transfected with liposome.

IBD animal model = assay: Macroscopic pathological changes of IBD animal model (enteroclysis with TNBS); assay type: in vivo, SD rats; details: TNBS rats; for Macroscopic pathological score: 80 mg/kg intragastrically daily, score 0-5, 10 animals
Procedure: Eight-week-old male SD rats (10 rats per group) were fasted for 24 hours and anaesthetized with diethyl ether. 50% ethanol and TNBS (2,4,6-trinitrobenzenesulfonic acid) were mixed to prepare a solution. In the IBD model group, a tube made of vinyl resin was inserted 5 cm from anus, and enteroclysis was performed with the TNBS solution in a dose of 100 mg/kg. The rats were hung upside down 30 seconds later after the enteroclysis to ensure no leakage of the TNBS solution. In the control group, the TNBS solution was replaced with normal saline with which enteroclysis was performed. Seven days later after the enteroclysis with the TNBS solution or normal saline, animals were sacrificed and dissected. […] Two weeks later after treated with the drugs, the animals were sacrificed and dissected, and large intestine thereof was taken out and fixed in 4% formalin solution for 30 minutes. The large intestine of the animals was cut lengthwise from the mesentery side to take photos for rectum portion and measure the weight of rectum. Based on the macroscopic observation and judgment score (Table 2-1), ulceration and bleeding states of rectum portion were scored according to the macroscopic observation scoring standard.

TNF-α = assay: Serum TNF-α level of IBD animal model (ELISA); assay type: in vivo, SD rats; details: 80 mg/kg, three days after making the TNBS model
Excerpt: (§1) Inflammatory bowel disease is an autoimmune disease. […] The therapeutic effect of the representative compound for the immune system disease or inflammation can be assessed by detecting change in levels of some important cytokines such as TNF-α and IL-6 at downstream of the signal path.

IL-6 = assay: Serum IL-6 level of IBD animal model (ELISA); assay type: in vivo, SD rats; details: 80 mg/kg, three days after making the TNBS model
Excerpt: as §1

HMLE-Snail cell line = assay: Formation of HMLE-Snail cell line spheroids; assay type: cell-based; details: read-out: Colony (%): cell colony number of drug-treated group/cell colony number of control group × 100%
Procedure: HMLE-Snail cell line is one of most classic cell models for studying tumor cell metastasis and EMT path. HMLE-Snail cell line highly expresses Snail protein, and thus one of most remarkable features thereof is that it has spherical cellular morphology (spheroid). […] The HMLE-Snail cell line used in the present invention was donated by Dr. Robert Weinberg from America Massachusetts Whitehead Institute. HMLE-Snail cells were suspended in a liquid culture medium (in which B-27 and N-2 were added, purchased from America Invitrogen Corporation) containing DMEM/F12 in a ratio of 1:1, in an amount of 1.0×10^3 cells/ml, and cultured in an ultra low attachment culture plate so as to allow spheroids to be formed. Seven days later, spheroids were collected by centrifugation, and counted. […] Docetaxel is a common clinical chemotherapy drug.

NCI-H1650 = assay: cells; assay type: cell-based; details: Homo sapiens, NCI-H1650, 72 h
Procedure: (§2) NCI-H1975 and NCI-H1650 are two typical high metastasis type lung cancer cell lines. The therapeutic effect of the representative compound for the metastasis type lung cancers can be preliminarily assessed by detecting the inhibitory activity of the representative compound for the two cell lines. The lung cancer cell line was inoculated on 96-well cell culture plate in an amount of 6000 cells per well and cultured at 37° C. for 24 hours, and then treated solely with the compound added therein and cultured. Seventy-two hours later, MTT or CCK-8 method was used to detect the inhibitory activity of the compound for the two lung cancer cell lines.

NCI-H1975 = assay: cells; assay type: cell-based; details: Homo sapiens, NCI-H1975, 72 h
Procedure: as §2

A2780 = assay: Inhibitory activity for high metastasis type ovarian cancer cell line (MTT or CCK-8); assay type: cell-based; details: Homo sapiens
Procedure: (§3) The two cell lines were inoculated on 96-well cell culture plate in an amount of 6000 cells per well and cultured at 37° C. for 24 hours, and then treated solely with the representative compound added therein and cultured. Seventy-two hours later, MTT or CCK-8 method was used to detect the inhibitory activity of the representative compound for the high metastasis type ovarian cancer cell lines.

HO-8910 = assay: as above; assay type: cell-based
Procedure: as §3

Panc-1 = assay: Inhibitory activity for other high metastasis type cancer cell line (MTT or CCK-8); assay type: cell-based; details: Homo sapiens
KYSE-70 = assay: as above; assay type: cell-based; details: Homo sapiens
Saos-2 = assay: as above; assay type: cell-based; details: Homo sapiens
786-O = assay: as above; assay type: cell-based; details: Homo sapiens
CaSki = assay: as above; assay type: cell-based; details: Homo sapiens, Ca-Ski
[1] = Safety testing via oral administration, 6 weeks; assay type: in vivo; details: intragastric, 6 weeks continuously, male and female SD rats
Procedure: The compound solution was intragastrically administrated to 6-week-old male and female SD rats (I-01: 500 mg/kg/day; I-03: 500 mg/kg/day; I-04: 500 mg/kg/day, I-06: 500 mg/kg/day, I-11: 300 mg/kg/day) for 6 weeks continuously (n=10 per group).

HCT116 = assay: Inhibitory activity for high metastasis type colon cancer cell line (MTT or CCK-8); assay type: cell-based; details: Homo sapiens, HCT-116; HCT116, 72 hours; read-out: IC50
Procedure: (§4) SW620 and HCT116 are two typical high metastasis type colon cancer cell lines. The colon cancer cell line was inoculated on 96-well cell culture plate in an amount of 6000 cells per well and cultured at 37° C. for 24 hours, and then treated solely with the compound added therein and cultured. Seventy-two hours later, MTT or CCK-8 method was used to detect the inhibitory activity of the compound for the two high metastasis type colon cancer cell lines.

SW620 = assay: as above; assay type: cell-based; details: Homo sapiens, SW-620; SW620, 72 hours; read-out: IC50
Procedure: as §4

Jeko-1 = assay: Inhibitory activity for high metastasis type lymphoma cell line (MTT or CCK-8); assay type: cell-based; details: Homo sapiens; Jeko-1, 72 hours; read-out: IC50
Procedure: (§5) Jeko-1, Raji and U2932 are three typical high metastasis type lymphoma cell lines. The lymphoma cell line was inoculated on 96-well cell culture plate in an amount of 6000 cells per well and cultured at 37° C. for 24 hours, and then treated solely with the compound added therein and cultured. Seventy-two hours later, MTT or CCK-8 method was used to detect the inhibitory activity of the compound for the two high metastasis type lymphoma cell lines.

Raji = assay: as above; assay type: cell-based; details: Homo sapiens, 72 hours, read-out: IC50
Procedure: as §5

U2932 = assay: as above; assay type: cell-based; details: Homo sapiens; U2932, 72 hours; read-out: IC50
Procedure: as §5

[2] = test system: SK-OV3 (high metastasis type ovarian cancer cell line); assay: Ovarian cancer intraperitoneal metastasis animal model; assay type: in vivo, nudemice (BALB/c-nu/nu); details: Mus musculus, SK-OV-3, ip
Procedure: The ovarian cancer intraperitoneal metastasis animal model is one of most classic animal models for studying anti-ovarian cancer metastasis drug. Sixty 5 to 6-week-old female nudemice with similar weight (BALB/c-nu/nu) were chosen. SK-OV3 (high metastasis type ovarian cancer cell line) stably expressing green fluorescence protein was screened, and prepared into a cell suspension of 2×10^6 cells/100 μl with serum-free PRMI1640 medium. […] Three weeks later, the cancer was detected with a small animal in vivo imaging apparatus (Xenogen, School of Medicine, Shanghai Jiaotong University) and photos thereof were taken. […] In the table, T represents the drug-treated group, and C represents the blank control group. T/C is (V/V0 of compound-treated group)/(V/V0 of blank control group) in which V represents the cancer volume of mouse on the day the detection was performed, and V0 represents the cancer volume of mouse on the day the administration begun.

[3] = 10 μg/ml, treated for 24 hours, control = 100

Structure (SMILES)	Activity (μM): inhibitory activity for XPO1 protein (full inhibitory concentration) (XPO1 protein)	Macroscopic pathological score (IBD animal model)	Serum TNF-α level, Animal-1 (TNF-α)	Serum TNF-α level, Animal-2 (TNF-α)	Serum TNF-α level, Animal-3 (TNF-α)	Serum IL-6 level, Animal-1 (IL-6)	Serum IL-6 level, Animal-2 (IL-6)	Serum IL-6 level, Animal-3 (IL-6)	activity at 10 µg/mL (HMLE-Snail cell line; [3])	also measured
[O-][S+](/C=C/CCN=C=S)c1ccccc1 (stereo not drawn) [Compound I-01]	1 to 5 µM	2.5 ± 0.1	1.5 ng/mL	1.2 ng/mL	1.2 ng/mL	1.5 ng/mL	1.3 ng/mL	1.2 ng/mL		NES-GFP cell localization (FIG. 1) (XPO1 protein; laser confocal micrograph): most of NES-GFP protein emitting green fluorescence is congregated in nucleus; activity at 10 µg/mL (HMLE-Snail cell line; 24 h): 35 to 40%; IC50 (NCI-H1650): 2700 nM; IC50 (NCI-H1975): 3100 nM; IC50 (A2780; A2780, 72 h): 2500 nM; IC50 (HO-8910; HO-8910, 72 h): 1900 nM; IC50 (Panc-1; PANC-1, 72 h): 3300 nM; IC50 (KYSE-70; KYSE-70, 72 h): 2700 nM; IC50 (Saos-2; SAOS-2, 72 h): 3200 nM; IC50 (786-O; 786-0, 72 h): 1000 nM; IC50 (CaSki; 72 h): 2100 nM
[O-][S+](/C=C/CCN=C=S)c1ccc(Cl)c(C(F)(F)F)c1 (stereo not drawn) [Compound I-03]	0.5 to 1 µM		1.3 ng/mL	1.1 ng/mL	0.7 ng/mL	0.9 ng/mL	0.8 ng/mL	0.7 ng/mL	25 to 30%	IC50 (Panc-1; Panc-1, 72 hours, read-out: IC50): 1600 nM; IC50 (KYSE-70; KYSE-70, 72 hours, read-out: IC50): 1800 nM; IC50 (Saos-2; Saos-2, 72 hours, read-out: IC50): 2600 nM; IC50 (786-O; 786-0, 786-O, 72 hours, read-out: IC50): 1300 nM; IC50 (CaSki; CaSki, 72 hours, read-out: IC50): 1500 nM
[O-][S+](/C=C/CCN=C=S)c1ccc2ccccc2c1 (stereo not drawn) [Compound I-11]	1 to 5 µM								30 to 35%	nontoxic dose [1]: at least 300 mg/kg/day
S=C=NCCc1ccccc1 [PEITC, phenylethylisothiocyanate, reference compound]	30 µM	3.5 ± 0.3	2.0 ng/mL	1.9 ng/mL	2.0 ng/mL	2.2 ng/mL	2.1 ng/mL	2.1 ng/mL	85%	colon tissue bleeding and ulceration phenomena (in words) (IBD animal model; 80 mg/kg): small relief extent; IC50 (HCT116): 8400 nM; IC50 (SW620): 10200 nM; IC50 (Jeko-1): 8700 nM; IC50 (Raji): 9300 nM; IC50 (U2932): 11700 nM; IC50 (A2780; A2780, 72 hours, read-out: IC50): 17600 nM; IC50 (HO-8910; HO-8910, 72 hours, read-out: IC50): 15500 nM; response vs control in vivo at 80 mg/kg ([2]; 504 h, 80 mg/kg intraperitoneal injection once a day for 3 weeks, read-out: T/C (%)): 71%; mortality at 80 mg/kg ([2]; 720 h, 80 mg/kg, six mice per group, read-out: Mortality (within 30 days) (converted)): 0%
